According to patent publication US20170198027A1 (priority 2012, published 2017):
Entries after “also recorded” stand apart in the source; their conditions may differ. Read-outs that look alike come from different tables or passages of the source.

Columns and labels:
[1] = test system: New Zealand white rabbit fed with high fat diet; details: for atherosclerosis Grade: individual animals, listed as APOAI
Procedure: The treatment groups were given APOAJ via auricular vein once a week Vehicle controls received normal saline via auricular vein once a week. […] The body weight of animal was determined every week and whole blood was drawn every three weeks. The study duration was 19 weeks. At the end of study, all animals were sacrificed. […] Male New Zealand white rabbits were used in this study. […] Blood samples were taken 12 hour after fasting before study to determine the blood lipid parameters. […] Ten to 14 rabbits were in one group. […] First dose was given 1 week before high fat diet. […] 5.2 blood lipid parameters: whole blood was drawn every three weeks. Animals were subject to 12 hour fast before taking blood. […] The upper layer of serum was then separated and examined for total cholesterol (TC), total triglyceride (TG), low density lipoprotein cholesterin (LDL-C), and high density lipoprotein cholesterin (HDL-C). Test reagents were purchased from Shanghai A: The atherosclerosis of aorta (plaque area lj) B: Liver index C: Aorta, liver, heart, arteria carotis, kidney All animals were anesthetized by 20 of ethyl carbamate and then sacrificed with air injection. Abdomen cavity was opened. Whole blood was taken from heart. Heart was harvested along with 7 em of aorta. Then other organs like liver, kidney and arteria carotis were harvested. […] Pictures were taken then. Aorta was cut from aortic arch, opened longitudinally and taken picture. […] One piece of this sample was fixed in fomlalin for further pathological analysis. The weight of liver was determined immediately. Two pieces of specimen were cut from hepatic lobe. One was kept in cryo-preservation tube for lipid analysis and another one was fixed in formalin for further pathological analysis. Animals were fast for 12 hours before taking blood samples via auricular vein. […] Test reagents were purchased from Shanghai Rong Sheng Bio-pharmaceutical Co. Ltd. The aorta was dissected and opened for 7.5 em from aortic arch longitudinally. Pictures were taken and atherosclerosis changing was analyzed.

[2] = test system: Apo E(-/-) mice fed with HFD/High Cholesterol diet; test: lipid profile and atherosclerosis plaque in 18 ApoE mice, 4 weeks study; type: in vivo, mouse
Procedure: [table] […] Before HFD; 4 week: […] After 4 weeks treatment Oil Red staining procedure: • Sacrificed the mice and heart, aorta, and arteries were dissected under the dissecting microscope. […] Stain with freshly prepared Oil Red 0 working solution 10 mins. Image analysis procedure: • The unfolded vascular inner wall “Were scanned with Aperio ScanScope system and the area of atherosclerotic plaque was measured by Image-Proplus software after oil red 0 staining as follow picture shown. We measured the sum lesion areas and mean density using ipp software and calculated atherosclerotic percent. Area percent (%)” Sum area of atherosclerotic plaque (mm2) I whole area of vascular inner wall

[3] = low dose group vs vehicle control
[4] = medium group vs vehicle control

“human Apoiipoprotein AI, injection [APOA1]” was tested, and the “Lipid content in aorta: HDL-C” value ([1]; High dose) was 0.111, the “Lipid content in aorta: LDL-C” value ([1]; High dose) was 0.318 and the “Lipid content in aorta: TC” value ([1]; High dose) was 0.29. The “Lipid content in aorta: TG” value ([1]; High dose) was 0.402, the “Lipid content in liver: HDL-C” value ([1]; High dose) was 0.825 ± 0.129 and the “Lipid content in liver: LDL-C” value ([1]; High dose) was 2.302 ± 0.054. For the same substance, the “Lipid content in liver: TC” value ([1]; High dose) was 2.841 ± 0.298, the “Lipid content in liver: TG” value ([1]; High dose) was 1.3 ± 0.171 and the Liver index ([1]; High dose (n = 8)) was 4.257 ± 0.482%. For the same substance, the Liver weight ([1]; High dose (n = 8)) was 151.69 ± 18.49 g, the “Lipid content in aorta: HDL-C” value ([1]; Low dose) was 0.092 and the “Lipid content in aorta: LDL-C” value ([1]; Low dose) was 0.254. The “Lipid content in aorta: TC” value ([1]; Low dose) was 0.28, the “Lipid content in aorta: TG” value ([1]; Low dose) was 0.337 and the “Lipid content in liver: HDL-C” value ([1]; Low dose) was 0.803 ± 0.236. The “Lipid content in liver: TC” value ([1]; Low dose) was 2.95 ± 0.809, the “Lipid content in liver: TG” value ([1]; Low dose) was 1.369 ± 0.251 and the Liver index ([1]; Low dose (n = 12)) was 3.886 ± 0.489%. The Liver weight ([1]; Low dose (n = 12)) was 128.096 ± 20.43 g, the Liver index ([1]; Medium dose (n = 9)) was 3.708−.−i−:( ).391% and the Liver weight ([1]; Medium dose (n = 9)) was 112.006− −+ .−25.79 g. The “Lipid content in aorta: HDL-C” value ([1]; Middle dose) was 0.128, the “Lipid content in aorta: LDL-C” value ([1]; Middle dose) was 0.307 and the “Lipid content in aorta: TC” value ([1]; Middle dose) was 0.332. For the same substance, the “Lipid content in aorta: TG” value ([1]; Middle dose) was 0.388, the “Lipid content in liver: HDL-C” value ([1]; Middle dose) was 0.815 ± 0.249 and the “Lipid content in liver: LDL-C” value ([1]; Middle dose) was 1.407 ± 0.418. The “Lipid content in liver: TC” value ([1]; Middle dose) was 2,214 ± 0.515, the “Lipid content in liver: TG” value ([1]; Middle dose) was 1.081 ± 0.31 and the blood lipid parameters ([1]; given along with high fat diet) was “no significant decrease in blood lipid parameters”. For the same substance, the “TG, lipid content in liver” value ([1]; high dose group vs vehicle control) was “significantly lower”, the “atherosclerosis Grade” value ([1]; high dose group) was “IV (Grade IV was greater than 75%)” and the “pathological change of aorta” value ([1]; low dose group) was “no significant improvement”. The “TG, lipid content in liver” value [1, 3] was “significantly lower”, the “cellular swelling in liver” value [1, 3] was “same” and the “fat degeneration in liver” value [1, 3] was “better”. The “atherosclerosis Grade” value ([1]; low dose group) was “I (grade I was less than 25 ?-)); also recorded: IV (Grade IV was greater than 75%)”, the “atherosclerosis Grade” value ([1]; medium dose group) was “I (grade I was less than 25 ?-))” and the area of atherosclerosis ([1]; medium group (40 mg/kg) vs vehicle control) was “significant less”. For the same substance, the “LDL-C, lipid content in liver” value [1, 4] was “significantly lower”, the “TC, lipid content in liver” value [1, 4] was “significantly lower” and the “TG, lipid content in liver” value [1, 4] was “significantly lower”. For the same substance, the “cellular swelling and fat degeneration in liver” value [1, 4] was “better”, the “pathological change of aorta (endothelium swelling, smooth muscle migrating, foam cell formation)” value [1, 4] was “better” and the “Body weight Wk 19” value ([1]; rabbit, in vivo) was 3.19-.-i-:( ).278 kg. The “atherosclerosis change in Arteria carotis” value ([1]; rabbit, in vivo) was “no atherosclerosis change found”, the “calcification, pathological examination” value ([1]; rabbit, in vivo) was “no calcification found” and the “kidney Pathological change” value ([1]; rabbit, in vivo) was “-”. For the same substance, the “pathological change in heart and kidney” value ([1]; rabbit, in vivo) was “no pathological change found”, the “high density lipoprotein cholesterin (HDL-C) Wk 19” value ([1]; serum, High dose (n = 8)) was 4.993 · −+ :2.018 mmol/L and the “ligh density lipoprotein cholesterin (LDL-C) Wk 0” value ([1]; serum, High dose (n = 8)) was 0.92 ± 0.324 mmol/L. The “ligh density lipoprotein cholesterin (LDL-C) Wk 19” value ([1]; serum, High dose (n = 8)) was 14.1 ± 4.188 mmol/L, the “total cholesterol (TC) Wk 0” value ([1]; serum, High dose (n = 8)) was 1.59 .t-J}.48 mmol/L and the “total cholesterol (TC) Wk 19” value ([1]; serum, High dose (n = 8)) was 12.49 -t-2.81 mmol/L. The “high density lipoprotein cholesterin (HDL-C) Wk 0” value ([1]; serum, Low dose (n = 12)) was 0.705 ± 0.246 mmol/L, the “high density lipoprotein cholesterin (HDL-C) Wk 19” value ([1]; serum, Low dose (n = 12)) was 3.744 ± 2.14 mmol/L and the “ligh density lipoprotein cholesterin (LDL-C) Wk 0” value ([1]; serum, Low dose (n = 12)) was 0.826 ± 0.279 mmol/L. The “ligh density lipoprotein cholesterin (LDL-C) Wk 19” value ([1]; serum, Low dose (n = 12)) was 7.298 ± 4.60 mmol/L, the “total cholesterol (TC) Wk 0” value ([1]; serum, Low dose (n = 12)) was 1.06.-i-:0.27 mmol/L and the “total cholesterol (TC) Wk 19” value ([1]; serum, Low dose (n = 12)) was 9.07-.+:4.92 mmol/L. The “total triglyceride (TG) Wk 0” value ([1]; serum, Low dose (n = 12)) was 0.786 ± 0.229 mmol/L, the “total triglyceride (TG) Wk 19” value ([1]; serum, Low dose (n = 12)) was 1.267 ± 0.772 mmol/L and the “high density lipoprotein cholesterin (HDL-C) Wk 0” value ([1]; serum, Medium dose (n = 9)) was 0.67 ± 0.207 mmol/L. The “high density lipoprotein cholesterin (HDL-C) Wk 19” value ([1]; serum, Medium dose (n = 9)) was 4.343 ± 2.439 mmol/L, the “ligh density lipoprotein cholesterin (LDL-C) Wk 19” value ([1]; serum, Medium dose (n = 9)) was 6.357 ± 4.475 mmol/L and the “total cholesterol (TC) Wk 0” value ([1]; serum, Medium dose (n = 9)) was 1.77 ± 0.783 mmol/L. The “total cholesterol (TC) Wk 19” value ([1]; serum, Medium dose (n = 9)) was 10.28 ± 5.82 mmol/L, the “total triglyceride (TG) Wk 0” value ([1]; serum, Medium dose (n = 9)) was 0.656 ± 0.19 J·mmol/L and the HDL-C ([1]; serum, all treatment groups vs vehicle control) was “significantly high”. For the same substance, the dose escalation effect ([1]; three treatment groups, anatomic, pathological and biochemistry examination) was “no dose escalation effect”, the Liver index ([1]; treatment group vs vehicle) was “lower in treatment group, but there's no statistical difference found” and the “lipid content in aorta” value ([1]; treatment groups vs vehicle control) was “lower in treatment groups than that in vehicle control but there was no statistical significance”. The “blood plasma lipid profile” value ([2]; after 5 weeks treatment, 0.2 ml iv/ip) was “didn't improve the lipid profile” and the atherosclerotic plaques/lesions ([2]; vs vehicle group after 14 dosing) was “trend on reducing the atherosclerotic plaques/lesions”.
